From PMC9570207, “Pharmacokinetics of Myo-Inositol in a Wistar Rat Animal Model” (International Journal of Molecular Sciences, 2022)
Like-named read-outs stand apart in the source and are kept apart here.

Legend:
[1] = set-up: method as in PMID 32650579; settings: cited from earlier work
[2] = test system: systolic blood pressure; set-up: method as in PMID 33113433; settings: 3 mg/kg, Wistar rats; cited from earlier work
[3] = rat, in vivo, po, 25 mg/kg; cited from earlier work
[4] = test system: angiotensin-converting enzyme; set-up: method as in PMID 33113433; settings: cited from earlier work
[5] = test system: alkaline phosphatases from bovine intestinal mucosa; set-up: method as in doi:10.1016/S0928-0987(97)00019-5; settings: bovine intestinal alkaline phosphatase; cited from earlier work
[6] = Pharmacokinetics of myo-inositol in serum after oral gavage, one-compartment PK model; type: in vivo, Wistar rat; settings: 2 g/kg oral
Protocol: The experiment was performed on male Wistar rats (n = 9). We used male Wistar rats in our study because hormone changes throughout the female estrus cycle may have caused female rats to react differently, making them unpredictable and providing variable results during repeated experiments. All rats were 6 weeks old and had no morphological features deviating from the standard Wistar animal model. Animals were housed in a temperature-controlled room with a 12 h light/dark cycle and free access to water and food. The study was conducted in compliance with the Local Ethics Committee for Animal Experiments in Olsztyn. Each animal received a solution of myo-inositol (2 g/kg) in distilled water by oral gavage (Agnthos, curved gastric probe, 16G, 3 mm, 75 mm tip). The animals were fasted before the administration of myo-inositol (12 h since the last meal). Food was allowed for 2 h after administration of the compound. Access to water was unlimited. In order to reduce the amount of blood collected from a single animal, the animals were divided into three groups (n = 3).
For removing of proteins, 160 μL of acetonitrile (containing […] of xylitol, as an internal standard) was added to 50 μL of rat plasma and the sample was shaken for 5 min (1300 rpm, Vortex Genie 2, Scientific Industries, Bohemia, NY, USA). After centrifugation (20,000× g at 4 °C for 10 min), the supernatant was transferred into glass chromatographic vials and concentrated in a speed vacuum evaporator to dryness. Dry residues were derivatized with a mixture of trimethylsilylimidazole (TMSI) and pyridine (1:1, v/v). TMS-derivatives of myo-inositol were analyzed by the high-resolution gas chromatography method on a gas chromatograph GC2010Plus (Shimadzu, Tokyo, Japan) with a capillary column ZEBRON ZB-1 (15 m length, 0.25 mm diameter and 0.1 μm film thickness, Phenomenex, Torrance, CA, USA). The injector temperature was 325 °C and the initial column oven temperature was 150 °C. Helium was used as a carrier gas (at a flow rate of 1.18 mL min^−1). Afterwards, the sample injection (1 μL, in a split ratio 10:1) was ramped sequentially to 200 °C at a rate of 20 °C min^−1, to 300 °C at 30 °C min^−1 and to 335 °C at 20 °C min^−1. The final temperature was held for 2.42 min and the total time of analysis was 10 min. The detector was maintained at 350 °C. Myo-inositol was quantified by using the standard: myo-inositol from Sigma. The content of myo-inositol was calculated from the standard curves of appropriate components.
The data fitting was performed with NONMEM software (Version 7.3.0; ICON Development Solutions, Ellicot City, MD, USA) and the Gfortran compiler 9.0. NONMEM runs were executed using Wings for NONMEM (WFN730; http://wfn.sourceforge.net). The NONMEM data processing and plots were performed in Matlab Software (Version 0.1; The MathWorks, Natick, MA, USA). The schematic representation of the PK model is given in Figure 4. dA/dt=−ka∗AA(0)=DPO dX/dt=k−CL/F/V/F∗A+ka∗AX(0)=C0∗V/F where A and X denote the amount of myo-inositol in the absorption and central compartment, F denotes bioavailability, DPO denotes an oral dose of myo-inositol, ka denotes absorption rate constant, kin denotes an endogenous input of myo-inositol, CL denotes clearance, V denotes volume of distribution, and C0 denotes endogenous concentration of myo-inositol. CL and V were estimated as apparent due to uncertain bioavailability (CL/F and V/F). The steady-state concentration of myo-inositol implies the following relationship: k=C0∗CL/F
The concentration of myo-inositol in serum is given by: C=X/V/F
The observed concentrations (Cobs) were related to model predictions through the following equation (proportional residual error model): Cobs=C∗(1+ε) where ε is a normal random variable with standard deviation σ.

[7] = 100 mg/kg oral, male Wistar rats, liver

Compound: CO[C@H]1[C@H](O)[C@@H](O)[C@@H](O)[C@H](O)[C@@H]1O [DP, D-pinitol]
- Time at which plasma DP level became detectable ([1]; 100 mg/kg oral, 18 h food-deprived male Wistar rats, plasma): 10 min
- Time at which liver concentration became detectable [1, 7]: 30 min
- Time of peak liver concentration [1, 7]: 120 min
- Time of plasma peak ([1]; 100 mg/kg oral, male Wistar rats, plasma): 1 h
- Time of peak in liver ([1]; 500 mg/kg oral, Wistar rats, liver): 120 min
- Time of peak in plasma ([1]; 500 mg/kg oral, Wistar rats, plasma): 120 min
- Accumulation in the liver ([1]; oral DP, Wistar rats, liver): no accumulation was detected
- Half-life time, liver ([1]; oral DP, Wistar rats, liver): 2.57 h
- Half-life time, plasma ([1]; oral DP, Wistar rats, plasma): 1.8 h
- Time after which completely cleared ([1]; oral DP, Wistar rats): 6 h

Compound: COC1[C@H](O)[C@H](O)C(O)[C@H](O)[C@H]1O (stereo partly drawn) [LB, L-(+)-bornesitol]
- Effect on systolic blood pressure [2]: reduced the systolic blood pressure
- Dose proportionality of peak concentration and AUC [3]: non-linear pharmacokinetics
- Time to peak plasma concentration [3]: approximately 1 h
- half-life [3]: 1.202 to 2.0615 h
- Angiotensin-converting enzyme inhibition [4]: potent

Compound: O=P(O)(O)OC1[C@H](OP(=O)(O)O)[C@H](O)C(O)[C@H](O)[C@H]1OP(=O)(O)O (stereo partly drawn) [a-trinositol, d-myo-inositol 1,2,6-trisphosphate]
- Dephosphorylation by intestinal enzymes [5]: extensive dephosphorylation

Compound: O[C@H]1[C@H](O)[C@@H](O)[C@H](O)[C@@H](O)[C@H]1O [myo-inositol]
- Evidence of harm from the dosage during the study ([6]; Wistar rats): no significant evidence of harm
- Time after which the level of MI started to drop ([6]; Wistar rats): 2 h
- Time of highest peak of MI after administration ([6]; Wistar rats): 1 h
- Serum level approximately after 24 h compared with before administration ([6]; Wistar rats, 24 h): still higher than before administration
- k el ([6]; male, rat, serum, secondary parameter, Wistar rats, read-out: Kel, Elimination rate constant, (CL/F)/(V/F) (converted)): 4.72e-05 s⁻¹
- half-life ([6]; male, rat, serum, secondary parameter, Wistar rats, read-out: T0.5, Biological half-life, ln(2)/kel (converted)): 4.08 h
- Mean MI in Rat Serum ([6]; rat 1A (ID:1), group 1, times 0, 0.25, 0.5, 1, 24 h): 45.69 µg/mL
- Mean MI in Rat Serum ([6]; rat 1B (ID:4), group 2, times 0, 2, 4, 8, 12, 24 h): 45.70 µg/mL
- Mean MI in Rat Serum ([6]; rat 1C (ID:7), group 3, times 0, 1.5, 36, 48 h): 46.23 µg/mL
- Mean MI in Rat Serum ([6]; rat 2A (ID:2), group 1, times 0, 0.25, 0.5, 1, 24 h): 60.00 µg/mL
- Mean MI in Rat Serum ([6]; rat 2B (ID:5), group 2, times 0, 2, 4, 8, 12, 24 h): 46.23 µg/mL
- Mean MI in Rat Serum ([6]; rat 2C (ID:8), group 3, times 0, 1.5, 36, 48 h): 49.38 µg/mL
- Mean MI in Rat Serum ([6]; rat 3A (ID:3), group 1, times 0, 0.25, 0.5, 1, 24 h): 57.46 µg/mL
- Mean MI in Rat Serum ([6]; rat 3B (ID:6), group 2, times 0, 2, 4, 8, 12, 24 h): 39.86 µg/mL
- Mean MI in Rat Serum ([6]; rat 3C (ID:9), group 3, times 0, 1.5, 36, 48 h): 38.33 µg/mL
- AUC, Area under concentration–time curve, F·D/CL ([6]; secondary parameter, Wistar rats): 2.34 mg·h/L/kg
